According to patent US11572344B2, “Cyanoaryl-aniline compounds for treatment of dermal disorders” (NFlection Therapeutics, Inc., priority 2018, dated 2023):

Columns and labels:
[1] = Liver S9 half-life stability assay; format: in vitro ADME; conditions: human, liver S9 fraction, pH 7.4; 1 μM test compound, 2 mg/mL liver protein, 1 mM NADPH; read-out: Assay 4: liver S9 half-life
Protocol: Compounds can be assessed for metabolic stability in human skin by assessing their rate of disappearance from human S9 skin fraction. Similarly, compounds can be assessed for metabolic stability in human liver by assessing their rate of disappearance from human S9 liver fraction. The protocol below is used to assess the difference between skin and hepatic metabolism.
The assay was carried out in 96-well microtiter plates at 37° C. Reaction mixtures (25 μL) contained a final concentration of 1 μM test compound, 2 mg/mL liver or skin protein, and 1 mM NADPH in buffer (100 mM potassium phosphate, pH 7.4 buffer with 1 mM EDTA, 3 mM MgCl2). At each of the time points (0, 15, 30, and 60 minutes), 150 μL of quench solution (100% acetonitrile with 0.1% formic acid) with internal standard was transferred to each well. Besides the zero minute controls, mixtures containing the same components except the NADPH were also prepared as the negative control. Verapamil or testosterone was included as a positive control to verify assay performance. Plates were sealed and centrifuged at 4° C. for 15 minutes at 4000 rpm. The supernatant was transferred to fresh plates for LC/MS/MS analysis.
All samples were analyzed on LC/MS/MS using an AB Sciex API 4000 instrument, coupled to a Shimadzu LC-20AD LC Pump system. Analytical samples were separated using a Waters Atlantis T3 dC18 reverse phase HPLC column (20 mm×2.1 mm) at a flow rate of 0.5 mL/min. The mobile phase consisted of 0.1% formic acid in water (solvent A) and 0.1% formic acid in 100% acetonitrile (solvent B).
The extent of metabolism was calculated as the disappearance of the test compound, compared to the 0-min control reaction incubations. Initial rates were calculated for the compound concentration and used to determine t1/2 values and subsequently, the intrinsic clearance, CLint=(0.693) (1/t1/2 (min)) (mL incubation/mg of S9 protein).
Assay 4 is the liver S9 half-life stability assay as described in Example 42. A4 indicates a half life of greater than 50 min and less than or equal to 200 min and B4 indicates a half life of less than or equal to 50 minutes.

[2] = system: HCT116 cells; assay: HCT116 (Kras) GI50 cell-based assay (Cell Titer-Glo); conditions: Homo sapiens, HCT-116, 72 hours, read-out: Assay 3: HCT116 (Kras) GI50
Protocol: Alternatively, the following procedure can be used to measure cell-based activity. Test compounds were dissolved in DMSO in 10 mM stock. Cell Titer-Glo® 2.0 Luminescent cell viability assay reagent was purchased from Promega (Madison, Wis.). A375 and HCT116 cell lines were purchased from American Type Culture Collection (Manassas, Va.). For A375 cells, cell culture media was DMEM+10% FBS. For HCT116 cells, cell culture media was McCoy's 5A+10% FBS. All media were supplemented with 100 μg/mL of penicillin, and 100 μg/mL of streptomycin. Cultures were maintained at 37° C. in a humidified atmosphere of 5% CO2 and 95% air.
Test compounds were diluted in DMSO solution with 10-dose and 3-fold dilutions in a source plate starting at 10 mM. 25 nL of each test compound was delivered from the source plate to each well of the 384-well cell culture plates (T=Final) by Echo 550. 25 μL of culture medium containing 2000 of A375 or HCT116 cells was added to each of the wells in duplicates of the cell culture plates (T=0 and T=Final). 25 μL of Cell Titer Glo 2.0 reagent was added to each well of cell culture plate (T=0). The contents were mixed on an orbital shaker for 2 min and incubated at room temperature for 15 min to stabilize luminescent signal. Luminescence was recorded by Envision 2104 Multilabel Reader (PerkinElmer, Santa Clara, Calif.). The number of viable cells in culture was determined based on quantitation of the ATP present in each culture well. The cells in cell culture plate (T=Final) were incubated with the compounds at 37° C., 5% CO2 for 72 hours. 25 μL of Cell Titer Glo 2.0 reagent was added to each well. The contents were mixed on an orbital shaker for 2 min and incubated at room temperature for 15 min to stabilize luminescent signal. Luminescence was recorded by Envision 2104 Multilabel Reader (PerkinElmer, Santa Clara, Calif.). The number of viable cells in culture was determined based on quantitation of the ATP present in each culture well. The GI50 curves were plotted using the GraphPad Prism 4 program based on a sigmoidal dose-response equation Y=Bottom+(Top-Bottom)/(1+10^((Log EC50−X)*HillSlope)). All parameters in the equation were calculated by GraphPad Prism 4 program. […] Accordingly, GI50 is the value of 10^X, where X was calculated by the Curve Fitting Equation when Y=50 using Excel.
Assay 3 is the HCT116 (Kras) GI50 (nM) assay as described in Example 41.

Row | half-life at 1 μM [1] | GI50 [2] | SMILES
1 | 50 to 200 min | ≤ 0.75 µM | N#Cc1ccc(C(=O)NOCCO)c(Nc2ccc(I)cc2F)c1F [Compound 1.030, 4-cyano-3-fluoro-2-((2-fluoro-4-iodophenyl)amino)-N-(2-hydroxyethoxy) benzamide]
2 | 50 to 200 min | ≤ 0.75 µM | N#Cc1ccc(C(=O)NOCCO)c(Nc2ccc(I)cc2F)c1 [Compound 1.010]
3 | ≤ 50 min | 0.75 to 2 µM | N#Cc1ccc(C(=O)NOCC2CC2)c(Nc2ccc(I)cc2F)c1F [Compound 1.031]
